Reference: US7163947B2, “1-Amino 1H-imidazoquinolines” (3M Innovative Properties Company, priority 2003, dated 2007)

| SMILES | melting point |
| --- | --- |
| CCc1nc2c(N)nc3c(c2n1NCCCNC(C)=O)CCCC3 [Example 41, N-{3-[(4-Amino-2-ethyl-6,7,8,9-tetrahydro-1H-imidazo[4,5-c]quinolin-1-yl)amino]propyl}acetamide] | 175 to 176 °C |
| CCCc1nc2c(N)nc3cc(-c4cccnc4)ccc3c2n1NC(C)C [Example 19, N^1-Isopropyl-2-propyl-7-(pyridin-3-yl)-1H-imidazo[4,5-c]quinoline-1,4-diamine] | 218 to 219 °C |
| CCOCc1nc2c(N)nc3ccccc3c2n1N(C)C [Example 7, N^1,N^1-Dimethyl-2-ethoxymethyl-1H-imidazo[4,5-c]quinoline-1,4-diamine] | 213 to 215 °C |
| CCOCc1nc2c(N)nc3ccccc3c2n1NCCCNC(=O)C1CCCC1 [Example 24, N-(3-{[4-Amino-2-(ethoxymethyl)-1H-imidazo[4,5-c]quinolin-1-yl]amino}propyl)cyclopentanecarboxamide] | 75 to 77 °C |
| CCOCc1nc2c(N)nc3ccccc3c2n1NCCCNC(C)=O [Example 34, N-(3-{[4-Amino-2-(ethoxymethyl)-1H-imidazo[4,5-c]quinolin-1-yl]amino}propyl)acetamide] | 178 to 181 °C |
| CCOCc1nc2c(N)nc3c(c2n1NCCCNC(=O)NC(C)C)CCCC3 [Example 26, 1-(3-{[4-Amino-2-(ethoxymethyl)-6,7,8,9-tetrahydro-1H-imidazo[4,5-c]quinolin-1-yl]amino}propyl)-3-isopropylurea] | 185 to 187 °C |
| Cc1nc2c(N)nc3ccccc3c2n1NC(C)C [Example 3, N^1-Isopropyl-2-methyl-1H-imidazo[4,5-c]quinoline-1,4-diamine] | 227 to 229 °C |
| CCOCc1nc2c(N)nc3c(c2n1NCCCNC(=O)C(C)C)CCCC3 [Example 33, N-(3-{[4-Amino-2-(ethoxymethyl)-6,7,8,9-tetrahydro-1H-imidazo[4,5-c]quinolin-1-yl]amino}propyl)-2-methylpropanamide] | 163 to 165 °C |
| CCOCc1nc2c(N)nc3ccccc3c2n1NCCCNC(=O)Nc1ccccc1 [Example 15, 1-{3-[(4-Amino-2-ethoxymethyl-1H-imidazo[4,5-c]quinolin-1-yl)amino]propyl}-3-phenylurea] | 177 to 179 °C |
| CCCc1nc2c(N)nc3cc(CCc4cccnc4)ccc3c2n1NC(C)C [Example 35, N^1-Isopropyl-2-propyl-7-(2-pyridin-3-ylethyl)-1H-imidazo[4,5-c]quinoline-1,4-diamine] | 100 to 103 °C |
| CCCc1nc2c(N)nc3ccccc3c2n1NC(C)C [Example 16, N^1-Isopropyl-2-propyl-1H-imidazo[4,5-c]quinoline-1,4-diamine] | 181 to 184 °C |
| CCCc1nc2c(N)nc3cc(-c4ccccc4)ccc3c2n1NC(C)C [Example 31, N^1-Isopropyl-7-phenyl-2-propyl-1H-imidazo[4,5-c]quinoline-1,4-diamine] | 217 to 220 °C |
| CCCc1nc2c(N)nc3c(c2n1NC(C)C)CCCC3 [Example 17, N^1-Isopropyl-2-propyl-6,7,8,9-tetrahydro-1H-imidazo[4,5-c]quinoline-1,4-diamine] | 162 to 164 °C |
| CCOCc1nc2c(N)nc3ccccc3c2n1NCCC(C)C [Example 12, 2-Ethoxymethyl-N^1-(3-methylbutyl)-1H-imidazo[4,5-c]quinoline-1,4-diamine] | 129 to 132 °C |
| CCOCc1nc2c(N)nc3ccccc3c2n1NCc1ccccc1 [Example 4, N^1-Benzyl-2-ethoxymethyl-1H-imidazo[4,5-c]quinoline-1,4-diamine] | 152 to 155 °C |
| CCCc1nc2c(N)nc3cc(-c4cccc(NS(C)(=O)=O)c4)ccc3c2n1NC(C)C [Example 27, N-{3-[4-Amino-1-(isopropylamino)-2-propyl-1H-imidazo[4,5-c]quinolin-7-yl]phenyl}methanesulfonamide] | 217 to 227 °C |
| CCOCc1nc2c(N)nc3ccccc3c2n1N1CCOCC1 [Example 13, 2-Ethoxymethyl-1-(morpholin-4-yl)-1H-imidazo[4,5-c]quinolin-4-amine] | 223 to 224 °C |
| CCCCc1nc2c(N)nc3ccccc3c2n1NCc1ccccc1 [Example 2, N^1-Benzyl-2-butyl-1H-imidazo[4,5-c]quinoline-1,4-diamine] | 159.3 to 160.5 °C |
| CCc1nc2c(N)nc3ccccc3c2n1NCCCNC(C)=O [Example 40, N-{3-[(4-Amino-2-ethyl-1H-imidazo[4,5-c]quinolin-1-yl)amino]propyl}acetamide] | 167 to 169 °C |

| SMILES | melting point |
| --- | --- |
| CCOCc1nc2c(N)nc3ccccc3c2n1NC(CC)CC [Example 9, 2-Ethoxymethyl-N^1-(1-ethylpropyl)-1H-imidazo[4,5-c]quinoline-1,4-diamine] | 125 to 128 °C |
| CCOCc1nc2c(N)nc3ccccc3c2n1NC(C)C [Example 5, 2-Ethoxymethyl-N^1-isopropyl-1H-imidazo[4,5-c]quinoline-1,4-diamine] | 162 to 164 °C |
| CCOCc1nc2c(N)nc3ccccc3c2n1NCCCNC(=O)N1CCOCC1 [Example 23, [3-(4-Amino-2-ethoxymethyl-1H-imidazo[4,5-c]quinolin-1-ylamino)propyl]morpholine-4-carboxamide] | 158 to 160 °C |
| CCOCc1nc2c(N)nc3c(c2n1NCCCNC(C)=O)CCCC3 [Example 37, N-(3-{[4-Amino-2-(ethoxymethyl)-6,7,8,9-tetrahydro-1H-imidazo[4,5-c]quinolin-1-yl]amino}propyl)acetamide] | 198 to 200 °C |
| CCOCc1nc2c(N)nc3ccccc3c2n1NCCCNC(=O)C(C)C [Example 32, N-(3-{[4-Amino-2-(ethoxymethyl)-1H-imidazo[4,5-c]quinolin-1-yl]amino}propyl)-2-methylpropanamide] | 108 to 110 °C |
| CCOCc1nc2c(N)nc3ccccc3c2n1NC1CCCCC1 [Example 6, N^1-Cyclohexyl-2-(ethoxymethyl)-1H-imidazo[4,5-c]quinoline-1,4-diamine] | 143 to 145 °C |
| CC(C)Nn1c(CO)nc2c(N)nc3ccccc3c21 [Example 42, [4-Amino-1-(isopropylamino)-1H-imidazo[4,5-c]quinolin-2-yl]methanol] | 228 to 229 °C |
| CCOCc1nc2c(N)nc3cc(OCc4ccccc4)ccc3c2n1NC(C)C [Example 20, 7-Benzyloxy-2-ethoxymethyl-N^1-isopropyl-1H-imidazo[4,5-c]quinoline-1,4-diamine] | 194 to 196 °C |
| CCOCc1nc2c(N)nc3c(c2n1NCCCNC(=O)N1CCOCC1)CCCC3 [Example 28, N-(3-{[4-Amino-2-(ethoxymethyl)-6,7,8,9-tetrahydro-1H-imidazo[4,5-c]quinolin-1-yl]amino}propyl)morpholine-4-carboxamide] | 152 to 154 °C |
| CCOCc1nc2c(N)nc3ccccc3c2n1NCCCNC(=O)NC(C)C [Example 25, 1-(3-{[4-Amino-2-(ethoxymethyl)-1H-imidazo[4,5-c]quinolin-1-yl]amino}propyl)-3-isopropylurea] | 174 to 177 °C |
| CCOCc1nc2c(N)nc3c(c2n1NC(C)C)CCCC3 [Example 11, 2-Ethoxymethyl-N^1-isopropyl-6,7,8,9-tetrahydro-1H-imidazo[4,5-c]quinoline-1,4-diamine] | 144 to 146 °C |
| CCCCc1nc2c(N)nc3ccccc3c2n1NC(C)C [Example 1, 2-Butyl-N^1-isopropyl-1H-imidazo[4,5-c]quinoline-1,4-diamine] | 157.1 to 158.7 °C |
| CCOCc1nc2c(N)nc3ccccc3c2n1NCC(C)C [Example 10, 2-Ethoxymethyl-N^1-isobutyl-1H-imidazo[4,5-c]quinoline-1,4-diamine] | 137 to 140 °C |
| CCOCc1nc2c(N)nc3ccccc3c2n1NCCCNS(C)(=O)=O [Example 14, N-{3-[(4-Amino-2-ethoxymethyl-1H-imidazo[4,5-c]quinolin-1-yl)amino]propyl}methanesulfonamide] | 148 to 150 °C |
| CCNC(=O)NCCCNn1c(COCC)nc2c(N)nc3ccccc3c21 [Example 38, 1-(3-{[4-Amino-2-(ethoxymethyl)-1H-imidazo[4,5-c]quinolin-1-yl]amino}propyl)-3-ethylurea] | 138 to 141 °C |
| CCOCc1nc2c(N)nc3cc(OCCCNS(C)(=O)=O)ccc3c2n1NC(C)C [Example 30, N-(3-{[4-Amino-2-(ethoxymethyl)-1-(isopropylamino)-1H-imidazo[4,5-c]quinolin-7-yl]oxy}propyl)methanesulfonamide] | 181 to 183 °C |
| CCCc1nc2c(N)nc3cc(-c4cccc(C(=O)N5CCOCC5)c4)ccc3c2n1NC(C)C [Example 29, N^1-Isopropyl-7-[3-(morpholin-4-ylcarbonyl)phenyl]-2-propyl-1H-imidazo[4,5-c]quinoline-1,4-diamine] | 274 to 276 °C |
| CCc1nc2c(N)nc3ccccc3c2n1NC(C)C [Example 36, 2-Ethyl-N^1-isopropyl-1H-imidazo[4,5-c]quinoline-1,4-diamine] | 245 to 247 °C |
| CCNC(=O)NCCCNn1c(COCC)nc2c(N)nc3c(c21)CCCC3 [Example 39, 1-(3-{[4-Amino-2-(ethoxymethyl)-6,7,8,9-tetrahydro-1H-imidazo[4,5-c]quinolin-1-yl]amino}propyl)-3-ethylurea] | 189 to 191 °C |
